Article PMC9492542, “Brain-restricted mTOR inhibition with binary pharmacology” (Nature, 2022)
Where two headings read alike, the source gives them in different places.

Tests used:
476 purified kinases [1] = biological target: 476 purified kinases (Homo sapiens, UniProt O00141); details: ZLYTE
Experimental: (§1) In vitro kinase inhibition assays were performed by SelectScreen Services (Thermo Fisher Scientific) using either Z’-LYTE (mTOR, Src, Csk, EGFR, HER2 and HGK), Adapta (LRRK2) or LanthaScreen (DDR2) assay format (standardized protocols can be accessed on the SelectScreen website: https://www.thermofisher.com/us/en/home/products-and-services/services/custom-services/screening-and-profiling-services/selectscreen-profiling-service/selectscreen-kinase-profiling-service.html. When indicated, recombinant FKBP12 protein was added to the assay mixture to a final concentration of 10 µM.

476 purified kinases [2] = biological target: 476 purified kinases (Homo sapiens, UniProt O75385)
Experimental: as §1

476 purified kinases [3] = biological target: 476 purified kinases (Homo sapiens, UniProt P06241); details: ZLYTE
Sequence of 476 purified kinases (Homo sapiens, UniProt P06241) (P06241 whole entry): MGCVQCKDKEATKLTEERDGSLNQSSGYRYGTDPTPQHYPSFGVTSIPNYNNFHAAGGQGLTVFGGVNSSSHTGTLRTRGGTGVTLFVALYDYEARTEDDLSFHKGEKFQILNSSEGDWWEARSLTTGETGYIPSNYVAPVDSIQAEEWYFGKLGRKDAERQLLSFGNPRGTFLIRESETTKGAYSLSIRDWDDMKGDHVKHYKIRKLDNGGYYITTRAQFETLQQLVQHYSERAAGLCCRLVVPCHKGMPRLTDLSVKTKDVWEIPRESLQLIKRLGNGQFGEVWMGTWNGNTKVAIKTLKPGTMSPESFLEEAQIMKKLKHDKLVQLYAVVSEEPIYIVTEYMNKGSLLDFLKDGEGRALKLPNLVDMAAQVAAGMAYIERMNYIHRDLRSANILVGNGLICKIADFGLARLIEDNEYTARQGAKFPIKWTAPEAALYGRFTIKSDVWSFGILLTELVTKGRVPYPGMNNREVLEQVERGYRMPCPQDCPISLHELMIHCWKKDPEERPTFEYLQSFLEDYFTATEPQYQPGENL
Experimental: as §1

476 purified kinases [4] = biological target: 476 purified kinases (Homo sapiens, UniProt P19525)
Sequence of 476 purified kinases (Homo sapiens, UniProt P19525) (P19525 whole entry): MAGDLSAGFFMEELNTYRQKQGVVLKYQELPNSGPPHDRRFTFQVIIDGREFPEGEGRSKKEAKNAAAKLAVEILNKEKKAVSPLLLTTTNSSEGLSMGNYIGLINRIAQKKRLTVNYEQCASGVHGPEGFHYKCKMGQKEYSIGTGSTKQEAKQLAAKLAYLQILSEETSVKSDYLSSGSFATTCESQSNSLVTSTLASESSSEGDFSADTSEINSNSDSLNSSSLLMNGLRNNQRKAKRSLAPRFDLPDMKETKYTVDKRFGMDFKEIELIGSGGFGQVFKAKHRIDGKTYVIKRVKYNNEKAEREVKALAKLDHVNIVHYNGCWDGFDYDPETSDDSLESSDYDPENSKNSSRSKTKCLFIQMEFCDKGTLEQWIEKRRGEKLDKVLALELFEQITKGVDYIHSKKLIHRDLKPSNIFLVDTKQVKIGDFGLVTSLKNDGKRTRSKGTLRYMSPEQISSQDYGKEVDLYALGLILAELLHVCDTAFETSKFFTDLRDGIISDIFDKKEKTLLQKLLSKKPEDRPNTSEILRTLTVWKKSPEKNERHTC
Experimental: as §1

476 purified kinases [5] = biological target: 476 purified kinases (Homo sapiens, UniProt P22612)
Experimental: as §1

476 purified kinases [6] = biological target: 476 purified kinases (Homo sapiens, UniProt P22694)
Experimental: as §1

476 purified kinases [7] = biological target: 476 purified kinases (Homo sapiens, UniProt P23443); details: ZLYTE
Sequence of 476 purified kinases (Homo sapiens, UniProt P23443) (P23443 whole entry): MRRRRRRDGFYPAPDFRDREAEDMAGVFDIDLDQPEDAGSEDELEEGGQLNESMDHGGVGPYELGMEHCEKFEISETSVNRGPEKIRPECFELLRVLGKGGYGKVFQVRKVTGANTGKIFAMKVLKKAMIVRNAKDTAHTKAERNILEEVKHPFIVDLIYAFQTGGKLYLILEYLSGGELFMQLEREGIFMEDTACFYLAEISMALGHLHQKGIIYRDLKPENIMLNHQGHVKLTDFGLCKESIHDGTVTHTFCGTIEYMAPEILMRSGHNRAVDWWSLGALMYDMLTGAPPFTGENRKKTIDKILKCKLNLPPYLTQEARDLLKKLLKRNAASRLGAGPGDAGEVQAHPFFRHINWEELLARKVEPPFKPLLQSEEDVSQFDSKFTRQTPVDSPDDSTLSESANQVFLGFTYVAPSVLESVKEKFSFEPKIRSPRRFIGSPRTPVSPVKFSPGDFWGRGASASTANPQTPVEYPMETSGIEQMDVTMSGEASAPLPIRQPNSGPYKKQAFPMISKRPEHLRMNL
Experimental: as §1

476 purified kinases [8] = biological target: 476 purified kinases (Homo sapiens, UniProt P24941); details: for CDK2/cyclin A (kinase profiling): ZLYTE
Experimental: as §1

476 purified kinases [9] = biological target: 476 purified kinases (Homo sapiens, UniProt P37023)
Sequence of 476 purified kinases (Homo sapiens, UniProt P37023) (P37023 22-503): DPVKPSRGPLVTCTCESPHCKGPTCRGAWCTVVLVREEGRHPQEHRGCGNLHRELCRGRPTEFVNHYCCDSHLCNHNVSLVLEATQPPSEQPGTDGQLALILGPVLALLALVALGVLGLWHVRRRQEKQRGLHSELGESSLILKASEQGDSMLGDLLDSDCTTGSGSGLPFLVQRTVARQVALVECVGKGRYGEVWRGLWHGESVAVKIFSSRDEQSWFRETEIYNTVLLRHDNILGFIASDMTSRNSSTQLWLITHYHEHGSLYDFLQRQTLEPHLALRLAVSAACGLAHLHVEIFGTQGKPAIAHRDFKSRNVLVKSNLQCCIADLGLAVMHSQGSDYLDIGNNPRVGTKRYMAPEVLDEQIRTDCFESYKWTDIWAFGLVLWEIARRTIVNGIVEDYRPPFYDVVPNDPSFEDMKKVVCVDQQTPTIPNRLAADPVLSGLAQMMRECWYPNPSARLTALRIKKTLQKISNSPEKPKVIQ
Experimental: as §1

476 purified kinases [10] = biological target: 476 purified kinases (Homo sapiens, UniProt P49336)
Experimental: as §1

476 purified kinases [11] = biological target: 476 purified kinases (Homo sapiens, UniProt P49761); details: ZLYTE
Sequence of 476 purified kinases (Homo sapiens, UniProt P49761) (P49761 whole entry): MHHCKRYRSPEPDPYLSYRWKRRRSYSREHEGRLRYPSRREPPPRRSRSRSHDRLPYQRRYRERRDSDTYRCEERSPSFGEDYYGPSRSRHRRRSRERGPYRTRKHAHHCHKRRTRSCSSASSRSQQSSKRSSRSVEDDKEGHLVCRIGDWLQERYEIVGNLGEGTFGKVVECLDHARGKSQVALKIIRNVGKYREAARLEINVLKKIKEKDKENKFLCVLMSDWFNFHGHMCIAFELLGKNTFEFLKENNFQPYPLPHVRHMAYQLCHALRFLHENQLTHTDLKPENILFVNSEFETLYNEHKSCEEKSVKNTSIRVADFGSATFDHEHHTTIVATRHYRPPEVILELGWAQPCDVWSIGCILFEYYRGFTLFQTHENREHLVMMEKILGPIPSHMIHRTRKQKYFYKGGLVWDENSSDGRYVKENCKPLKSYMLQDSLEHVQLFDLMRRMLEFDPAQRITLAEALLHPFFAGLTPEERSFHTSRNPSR
Experimental: as §1

476 purified kinases [12] = biological target: T1, 476 purified kinases (Homo sapiens, UniProt P52564); details: for MAP2K6 (MKK6) (kinase profiling): ZLYTE
T1 sequence (P52564 1-334): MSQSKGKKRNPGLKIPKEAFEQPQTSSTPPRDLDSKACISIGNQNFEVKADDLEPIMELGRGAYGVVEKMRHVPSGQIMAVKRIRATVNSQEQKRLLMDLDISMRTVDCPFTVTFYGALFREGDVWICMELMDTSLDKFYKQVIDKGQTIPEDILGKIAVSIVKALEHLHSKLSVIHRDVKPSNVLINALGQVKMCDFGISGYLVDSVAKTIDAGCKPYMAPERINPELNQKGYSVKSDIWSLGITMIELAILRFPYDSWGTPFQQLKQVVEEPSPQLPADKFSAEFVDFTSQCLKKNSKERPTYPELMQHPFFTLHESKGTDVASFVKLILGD
Experimental: as §1

476 purified kinases [13] = biological target: 476 purified kinases (Homo sapiens, UniProt Q00526)
Sequence of 476 purified kinases (Homo sapiens, UniProt Q00526) (Q00526 whole entry): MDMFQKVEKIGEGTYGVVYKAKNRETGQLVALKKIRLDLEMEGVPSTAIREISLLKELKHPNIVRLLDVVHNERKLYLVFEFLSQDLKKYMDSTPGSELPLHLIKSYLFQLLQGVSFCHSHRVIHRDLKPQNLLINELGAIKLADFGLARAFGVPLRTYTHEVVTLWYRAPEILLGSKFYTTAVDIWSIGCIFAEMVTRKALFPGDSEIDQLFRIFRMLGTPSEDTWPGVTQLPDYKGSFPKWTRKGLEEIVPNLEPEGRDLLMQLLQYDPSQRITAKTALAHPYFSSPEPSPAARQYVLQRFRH
Experimental: as §1

476 purified kinases [14] = biological target: 476 purified kinases (Homo sapiens, UniProt Q13873)
Experimental: as §1

476 purified kinases [15] = biological target: 476 purified kinases (Homo sapiens, UniProt Q15759); details: ZLYTE
Experimental: as §1

476 purified kinases [16] = biological target: 476 purified kinases (Homo sapiens, UniProt Q16513)
Experimental: as §1

476 purified kinases [17] = biological target: 476 purified kinases (Homo sapiens, UniProt Q32MK0)
Experimental: as §1

476 purified kinases [18] = biological target: 476 purified kinases (Homo sapiens, UniProt Q56UN5); details: ZLYTE
Experimental: as §1

476 purified kinases [19] = biological target: 476 purified kinases (Homo sapiens, UniProt Q6DT37); details: ZLYTE
Experimental: as §1

476 purified kinases [20] = biological target: 476 purified kinases (Homo sapiens, UniProt Q8IYT8)
Experimental: as §1

476 purified kinases [21] = biological target: 476 purified kinases (Homo sapiens, UniProt Q8N4C8); details: ZLYTE
Experimental: as §1

476 purified kinases [22] = biological target: 476 purified kinases (Homo sapiens, UniProt Q8NI60)
Experimental: as §1

476 purified kinases [23] = biological target: 476 purified kinases (Homo sapiens, UniProt Q96S53)
Experimental: as §1

476 purified kinases [24] = biological target: 476 purified kinases (Homo sapiens, UniProt Q99759)
Experimental: as §1

476 purified kinases [25] = biological target: 476 purified kinases (Homo sapiens, UniProt Q9H093)
Experimental: as §1

476 purified kinases [26] = biological target: 476 purified kinases (Homo sapiens, UniProt Q9H2X6); details: ZLYTE
Experimental: as §1

476 purified kinases [27] = biological target: 476 purified kinases (Homo sapiens, UniProt Q9H4B4); details: ZLYTE
Experimental: as §1

476 purified kinases [28] = biological target: 476 purified kinases (Homo sapiens, UniProt Q9UBE8)
Experimental: as §1

476 purified kinases [29] = biological target: 476 purified kinases (Homo sapiens, UniProt Q9UIK4); details: 10 nM compound + 10 µM FKBP12
Experimental: as §1

476 purified kinases [30] = biological target: 476 purified kinases (Homo sapiens, UniProt Q9UPE1); details: ZLYTE
Sequence of 476 purified kinases (Homo sapiens, UniProt Q9UPE1) (Q9UPE1 whole entry): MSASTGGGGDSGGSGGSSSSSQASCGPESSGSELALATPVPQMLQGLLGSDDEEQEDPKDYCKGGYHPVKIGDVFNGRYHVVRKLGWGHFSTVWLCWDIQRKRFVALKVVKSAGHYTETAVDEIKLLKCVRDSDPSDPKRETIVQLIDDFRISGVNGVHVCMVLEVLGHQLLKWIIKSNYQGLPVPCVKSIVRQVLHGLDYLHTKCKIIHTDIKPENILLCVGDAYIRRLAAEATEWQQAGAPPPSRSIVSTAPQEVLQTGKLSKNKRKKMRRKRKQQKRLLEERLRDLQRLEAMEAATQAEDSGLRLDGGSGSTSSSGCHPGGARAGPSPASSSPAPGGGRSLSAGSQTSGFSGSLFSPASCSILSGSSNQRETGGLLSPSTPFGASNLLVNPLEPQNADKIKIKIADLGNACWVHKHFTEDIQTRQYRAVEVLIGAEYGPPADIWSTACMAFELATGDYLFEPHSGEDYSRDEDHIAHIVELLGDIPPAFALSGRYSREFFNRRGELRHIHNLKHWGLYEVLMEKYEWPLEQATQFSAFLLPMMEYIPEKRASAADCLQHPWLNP
Experimental: as §1

476 purified kinases [31] = biological target: 476 purified kinases (Homo sapiens, UniProt Q9Y6E0); details: ZLYTE
Experimental: as §1

Sequence of 476 purified kinases (Homo sapiens, UniProt O75385) (O75385 whole entry): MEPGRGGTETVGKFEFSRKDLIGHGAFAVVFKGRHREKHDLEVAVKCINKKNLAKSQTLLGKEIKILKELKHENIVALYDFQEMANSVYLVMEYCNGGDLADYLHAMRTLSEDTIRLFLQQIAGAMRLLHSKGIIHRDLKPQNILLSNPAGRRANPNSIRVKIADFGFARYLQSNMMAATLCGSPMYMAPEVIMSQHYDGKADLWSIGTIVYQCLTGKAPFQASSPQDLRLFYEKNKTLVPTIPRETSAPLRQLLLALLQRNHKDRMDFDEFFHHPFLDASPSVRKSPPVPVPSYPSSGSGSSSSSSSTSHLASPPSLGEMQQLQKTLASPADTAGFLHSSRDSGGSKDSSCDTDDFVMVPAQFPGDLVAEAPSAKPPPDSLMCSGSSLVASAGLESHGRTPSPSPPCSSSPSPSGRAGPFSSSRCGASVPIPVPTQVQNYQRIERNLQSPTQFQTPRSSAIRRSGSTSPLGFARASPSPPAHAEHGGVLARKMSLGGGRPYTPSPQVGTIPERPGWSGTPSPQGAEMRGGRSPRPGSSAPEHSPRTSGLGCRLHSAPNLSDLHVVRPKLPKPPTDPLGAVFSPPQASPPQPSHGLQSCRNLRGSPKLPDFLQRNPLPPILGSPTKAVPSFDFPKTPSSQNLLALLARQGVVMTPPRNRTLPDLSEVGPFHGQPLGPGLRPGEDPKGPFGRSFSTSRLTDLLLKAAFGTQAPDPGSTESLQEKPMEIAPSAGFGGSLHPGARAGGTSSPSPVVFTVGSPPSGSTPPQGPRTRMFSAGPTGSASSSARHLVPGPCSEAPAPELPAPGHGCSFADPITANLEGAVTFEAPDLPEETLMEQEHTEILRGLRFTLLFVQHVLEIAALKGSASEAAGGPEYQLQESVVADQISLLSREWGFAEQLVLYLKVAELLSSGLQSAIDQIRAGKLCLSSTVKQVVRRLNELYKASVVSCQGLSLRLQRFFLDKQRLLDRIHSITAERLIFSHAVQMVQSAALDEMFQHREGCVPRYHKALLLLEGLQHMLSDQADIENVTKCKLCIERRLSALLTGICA
Sequence of 476 purified kinases (Homo sapiens, UniProt O00141) (O00141 whole entry): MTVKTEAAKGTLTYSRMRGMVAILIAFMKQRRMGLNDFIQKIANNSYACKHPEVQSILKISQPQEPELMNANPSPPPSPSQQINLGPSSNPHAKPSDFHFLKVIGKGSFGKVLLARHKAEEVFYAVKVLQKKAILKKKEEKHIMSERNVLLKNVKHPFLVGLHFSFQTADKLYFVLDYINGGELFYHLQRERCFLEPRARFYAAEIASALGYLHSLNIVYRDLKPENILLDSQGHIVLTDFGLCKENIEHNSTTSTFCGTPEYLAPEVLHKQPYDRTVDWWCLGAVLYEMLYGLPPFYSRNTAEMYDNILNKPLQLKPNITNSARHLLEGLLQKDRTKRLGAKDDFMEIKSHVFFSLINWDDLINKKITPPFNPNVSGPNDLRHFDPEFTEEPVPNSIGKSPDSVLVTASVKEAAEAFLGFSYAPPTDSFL

Cc1nc(Nc2ncc(C(=O)Nc3c(C)cccc3Cl)s2)cc(N2CCN(CCO)CC2)n1 [Dasatinib]
SGK (SGK1) (kinase profiling) (476 purified kinases [1]; 10 nM): 2
SGK (SGK1) (kinase profiling) (476 purified kinases [1]; 10 nM + 10 µM FKBP12): 2
ULK1 (LanthaScreen Binding) (476 purified kinases [2]; 10 nM compound): -2
ULK1 (LanthaScreen Binding) (476 purified kinases [2]; 10 nM compound + 10 µM FKBP12): 0
FYN (kinase profiling) (476 purified kinases [3]; 10 nM): 100
FYN (kinase profiling) (476 purified kinases [3]; 10 nM + 10 µM FKBP12): 101
EIF2AK2 (PKR) (LanthaScreen Binding) (476 purified kinases [4]; 10 nM compound): -5
EIF2AK2 (PKR) (LanthaScreen Binding) (476 purified kinases [4]; 10 nM compound + 10 µM FKBP12): -10
PRKACG (PRKAC gamma) (LanthaScreen Binding) (476 purified kinases [5]; 10 nM compound): 0
PRKACG (PRKAC gamma) (LanthaScreen Binding) (476 purified kinases [5]; 10 nM compound + 10 µM FKBP12): 6
PRKACB (PRKAC beta) (LanthaScreen Binding) (476 purified kinases [6]; 10 nM compound): -9
PRKACB (PRKAC beta) (LanthaScreen Binding) (476 purified kinases [6]; 10 nM compound + 10 µM FKBP12): -3
RPS6KB1 (p70S6K) (kinase profiling) (476 purified kinases [7]; 10 nM): 5
RPS6KB1 (p70S6K) (kinase profiling) (476 purified kinases [7]; 10 nM + 10 µM FKBP12): 0
CDK2/cyclin A1 (LanthaScreen Binding) (476 purified kinases [8]; 10 nM compound): 1
CDK2/cyclin E1 (LanthaScreen Binding) (476 purified kinases [8]; 10 nM compound): 0
CDK2/cyclin O (LanthaScreen Binding) (476 purified kinases [8]; 10 nM compound): 5
CDK2/cyclin A1 (LanthaScreen Binding) (476 purified kinases [8]; 10 nM compound + 10 µM FKBP12): 1
CDK2/cyclin E1 (LanthaScreen Binding) (476 purified kinases [8]; 10 nM compound + 10 µM FKBP12): -7
CDK2/cyclin O (LanthaScreen Binding) (476 purified kinases [8]; 10 nM compound + 10 µM FKBP12): 12
CDK2/cyclin A (kinase profiling) (476 purified kinases [8]; 10 nM): 3
CDK2/cyclin A (kinase profiling) (476 purified kinases [8]; 10 nM + 10 µM FKBP12): 6
ACVRL1 (ALK1) (LanthaScreen Binding) (476 purified kinases [9]; 10 nM compound): 16
ACVRL1 (ALK1) (LanthaScreen Binding) (476 purified kinases [9]; 10 nM compound + 10 µM FKBP12): 0
CDK8/cyclin C (LanthaScreen Binding) (476 purified kinases [10]; 10 nM compound): 2
CDK8/cyclin C (LanthaScreen Binding) (476 purified kinases [10]; 10 nM compound + 10 µM FKBP12): 5
CLK3 (kinase profiling) (476 purified kinases [11]; 10 nM): 6
CLK3 (kinase profiling) (476 purified kinases [11]; 10 nM + 10 µM FKBP12): 11
MAP2K6 (MKK6) (LanthaScreen Binding) (476 purified kinases [12]; 10 nM compound): -3
MAP2K6 (MKK6) (LanthaScreen Binding) (476 purified kinases [12]; 10 nM compound + 10 µM FKBP12): 8
MAP2K6 (MKK6) (kinase profiling) (476 purified kinases [12]; 10 nM): 9
MAP2K6 (MKK6) (kinase profiling) (476 purified kinases [12]; 10 nM + 10 µM FKBP12): 8
CDK3/cyclin E1 (LanthaScreen Binding) (476 purified kinases [13]; 10 nM compound): 0
CDK3/cyclin E1 (LanthaScreen Binding) (476 purified kinases [13]; 10 nM compound + 10 µM FKBP12): -21
BMPR2 (LanthaScreen Binding) (476 purified kinases [14]; 10 nM compound): 0
BMPR2 (LanthaScreen Binding) (476 purified kinases [14]; 10 nM compound + 10 µM FKBP12): 3
MAPK11 (p38 beta) (kinase profiling) (476 purified kinases [15]; 10 nM): 8
MAPK11 (p38 beta) (kinase profiling) (476 purified kinases [15]; 10 nM + 10 µM FKBP12): 9
PKN2 (PRK2) (LanthaScreen Binding) (476 purified kinases [16]; 10 nM compound): 4
PKN2 (PRK2) (LanthaScreen Binding) (476 purified kinases [16]; 10 nM compound + 10 µM FKBP12): 5
MLCK (MLCK2) (LanthaScreen Binding) (476 purified kinases [17]; 10 nM compound): -3
MLCK (MLCK2) (LanthaScreen Binding) (476 purified kinases [17]; 10 nM compound + 10 µM FKBP12): 3
MAP3K19 (YSK4) (kinase profiling) (476 purified kinases [18]; 10 nM): 3
MAP3K19 (YSK4) (kinase profiling) (476 purified kinases [18]; 10 nM + 10 µM FKBP12): -1
CDC42 BPG (MRCKG) (kinase profiling) (476 purified kinases [19]; 10 nM): 7
CDC42 BPG (MRCKG) (kinase profiling) (476 purified kinases [19]; 10 nM + 10 µM FKBP12): -1
ULK2 (LanthaScreen Binding) (476 purified kinases [20]; 10 nM compound): -3
ULK2 (LanthaScreen Binding) (476 purified kinases [20]; 10 nM compound + 10 µM FKBP12): -6
MINK1 (kinase profiling) (476 purified kinases [21]; 10 nM): 10
MINK1 (kinase profiling) (476 purified kinases [21]; 10 nM + 10 µM FKBP12): 10
ADCK3 (LanthaScreen Binding) (476 purified kinases [22]; 10 nM compound): -1
ADCK3 (LanthaScreen Binding) (476 purified kinases [22]; 10 nM compound + 10 µM FKBP12): 16
TESK2 (LanthaScreen Binding) (476 purified kinases [23]; 10 nM compound): 30
TESK2 (LanthaScreen Binding) (476 purified kinases [23]; 10 nM compound + 10 µM FKBP12): 35
MAP3K3 (MEKK3) (LanthaScreen Binding) (476 purified kinases [24]; 10 nM compound): 1
MAP3K3 (MEKK3) (LanthaScreen Binding) (476 purified kinases [24]; 10 nM compound + 10 µM FKBP12): 3
NUAK2 (LanthaScreen Binding) (476 purified kinases [25]; 10 nM compound): 7
NUAK2 (LanthaScreen Binding) (476 purified kinases [25]; 10 nM compound + 10 µM FKBP12): 0
HIPK2 (kinase profiling) (476 purified kinases [26]; 10 nM): 8
HIPK2 (kinase profiling) (476 purified kinases [26]; 10 nM + 10 µM FKBP12): 11
PLK3 (kinase profiling) (476 purified kinases [27]; 10 nM): -4
PLK3 (kinase profiling) (476 purified kinases [27]; 10 nM + 10 µM FKBP12): -21
NLK (LanthaScreen Binding) (476 purified kinases [28]; 10 nM compound): 6
NLK (LanthaScreen Binding) (476 purified kinases [28]; 10 nM compound + 10 µM FKBP12): -1
DAPK2 (LanthaScreen Binding) (476 purified kinases [29]): -11
STK23 (MSSK1) (kinase profiling) (476 purified kinases [30]; 10 nM): 5
STK23 (MSSK1) (kinase profiling) (476 purified kinases [30]; 10 nM + 10 µM FKBP12): 7
STK24 (MST3) (kinase profiling) (476 purified kinases [31]; 10 nM): 13
STK24 (MST3) (kinase profiling) (476 purified kinases [31]; 10 nM + 10 µM FKBP12): 20
